Assay type in all cases: cell-based
One assay relates to IL-6 (THP-1 cells). Put plainly: IL-6 inhibition in THP-1 monocytes (HTRF). To be noted: Homo sapiens; for EC50: IL-6 inhibition, THP-1 cells, HTRF, 10-point dose-response starting from 10 μM; for inhibition at 10 µM: THP-1, read-out: percentage in parentheses printed under EC50 >10. How it is done:
Compound Screening: THP-1 cells were cultured in basal media with 1% FBS for 24 hours before the start of the assay. […] THP-1 cells were plated at 5000 cells/well in the 384-well plates and incubated at 37° C. for 2 h. 500 ng/mL of […] was added after 2 hours and cells were incubated for another 22 hours at 37° C. Plates were spun in a centrifuge for 1 minute at 10,000 rpm and a mixture of anti-IL6 XL665, and anti-IL6 Cryptate diluted in reconstitution buffer (Cisbio Inc.) was added to each well. Following incubation for 3 hrs at room temperature, Homogeneous Time-Resolved Fluorescence (HTRF) was measured using the Envision (Perkin Elmer) at 665 nm and […]. The ratio of fluorescence at 665 nm to 620 nm was used as a readout for IL6 quantification. All samples were processed in duplicate. Readings were normalized to DMSO treated cells and normalized activities were utilized for EC50 calculations using the dose-response log (inhibitor) vs. response-variable slope (four parameters) nonlinear regression feature available in GraphPad Prism 5.0 (or Dotmatics).

Another assay concerns SW480 colon cancer cells. Nature of the assay: Cell viability assay (CellTiter-Blue) in SW480 colon cancer cells. To be noted: Homo sapiens; for EC50: 96 h, SW480 cell viability, four days incubation. How it is done: Representative compounds were screened using the following assay procedure to assess the effect on cell viability as described below.
Approximately 2×10^3 SW480 colon cancer cells were seeded into each well and allowed to incubate in the presence or absence of compound for four days at 37° C./5% CO2. Eight replicates of DMSO-treated cells served as controls and cells treated with compound were performed in duplicate.
After incubation, 20 μL of CellTiter-Blue (Promega) was added to each well allowed to incubate for approximately 3 hours. This reagent was a buffered solution which contains resazurin, metabolically active cells were able to reduce rezarurin (blue) into resorufin (pink) which was highly fluorescent. This measured fluorescence was used as a readout for cell viability.

Assay [1] has as its system Primary human fibroblasts derived from IPF patients (LL29 cells). Nature of the assay: Inhibition of the fibrotic process: αSMA staining in TGF-β1-treated LL29 fibroblasts. To be noted: Fibroblast, 96 h, LL29 cells, TGF-β1 20 ng/mL, 4 days, % αSMA-positive cells. An excerpt:
Representative compounds were screened using primary human fibroblasts (derived from IFF patients) treated with TGF-β1 to determine their ability to inhibit the fibrotic process.
K. L., et.al., “RhoA signaling modulates cyclin D1 expression in human lung fibroblasts; implications for idiopathic pulmonary fibrosis”, Respiratory Research (2006), 7(1), 88] were obtained from American Type Culture Collection (ATCC) and expanded in F12 medium supplemented with 15% Fetal Bovine Serum and Penicillin/Streptomycin.
LL29 cells are plated at 1,500 cells/well in 80 μL/well F12 medium supplemented with 1% Fetal Bovine Serum. […] Wells treated with TGF-β1 and containing DMSO were used as controls. […] Following incubation for 4 days, SYTOX green nucleic acid stain (Life Technologies [Thermo Fisher Scientific]) was added to the wells at a final concentration of 1 μM and incubated at room temperature for 30 min.

The subject of assay [2] is Wnt activity (Sp5-Luc reporter, SW480 colon carcinoma cells). Nature of the assay: Screening assay for Wnt activity: Sp5-Luc reporter gene assay in SW480 cells. To be noted: Homo sapiens; SW480 Sp5-Luc reporter, overnight incubation. An excerpt:
The screening assay for Wnt activity is described as follows. Reporter cell lines can be generated by stably transducing cancer cell lines (e.g., colon cancer) or primary cells (e.g., IEC-6 intestinal cells) with a lentiviral construct that includes a Wnt-responsive promoter driving expression of the firefly luciferase gene.
SW480 colon carcinoma cells were transduced with a lentiviral vector expressing luciferase with a human Sp5 promoter consisting of a sequence of eight TCF/LEF binding sites. SW480 cells stably expressing the Sp5-Luc reporter gene and a hygromycin resistance gene were selected by treatment with 150 μg/mL of hygromycin for 7 days. These stably transduced SW480 cells were expanded in cell culture and used for all further screening activities. […] For Sp5-Luc reporter gene assays, the cells were plated at 4,000 cells/well in 384-well plates with medium containing 1% fetal bovine serum and incubated overnight at 37° C. and 5% CO2. Following incubation, 20 μl of BrightGlo luminescence reagent (Promega) was added to each well of the 384-well assay plates. The plates were placed on an orbital shaker for 2 min and then luminescence was quantified using the Envision (Perkin Elmer) plate reader. Readings were normalized to DMSO only treated cells, and normalized activities were utilized for EC50 calculations using the dose-response log (inhibitor) vs. response-variable slope (four parameters) nonlinear regression feature available in GraphPad Prism 5.0 (or Dotmatics).
(In general: Reporter assays use an easily measured gene product as a stand-in for the process of interest.)

Broadly, the EC50 is the midpoint of the concentration-response curve. High values mean a less potent agent, low ones a more potent agent. Regarding `CC(C)(C)CC(=O)Nc1cncc(-c2ccc3[nH]nc(-c4cc5c(-c6ccccc6F)cncc5[nH]4)c3c2)c1` [Compound 72, N-(5-(3-(4-(2-Fluorophenyl)-1H-pyrrolo[2,3-c]pyridin-2-yl)-1H-indazol-5-yl)pyridin-3-yl)-3,3-dimethylbutanamide], the EC50 stood at 1100 nM in the assay with IL-6 (THP-1 cells), 693 nM with SW480 colon cancer cells, 593 nM in assay [1] and 730 nM in assay [2].
In the case of `Fc1ccc(-c2cncc3[nH]c(-c4n[nH]c5ccc(C6=CCNCC6)cc45)cc23)cc1` [Compound 522, 3-(4-(4-Fluorophenyl)-1H-pyrrolo[2,3-c]pyridin-2-yl)-5-(1,2,3,6-tetrahydropyridin-4-yl)-1H-indazole], in the assay with IL-6 (THP-1 cells), the inhibition at 10 µM amounted to 22%. The EC50 with IL-6 (THP-1 cells) was greater than 10000 nM; in the assay on SW480 colon cancer cells, 1670 nM; in assay [1], 2690 nM; in assay [2], 3980 nM.
For `O=C(Nc1cncc(-c2ccc3[nH]nc(-c4cc5c(-c6cccc(F)c6)cncc5[nH]4)c3c2)c1)C1CCCCC1` [Compound 23, N-(5-(3-(4-(3-Fluorophenyl)-1H-pyrrolo[2,3-c]pyridin-2-yl)-1H-indazol-5-yl)pyridin-3-yl)cyclohexanecarboxamide], the EC50 in the assay with IL-6 (THP-1 cells) worked out at 108 nM; in the assay on SW480 colon cancer cells it was 513 nM; in assay [1], 193 nM; in assay [2], 620 nM.
`Fc1cccc(-c2cncc3[nH]c(-c4n[nH]c5ccc(-c6ccncc6)cc45)cc23)c1` [Compound 18, 3-(4-(3-Fluorophenyl)-1H-pyrrolo[2,3-c]pyridin-2-yl)-5-(pyridin-4-yl)-1H-indazole]: in the assay on IL-6 (THP-1 cells), the inhibition at 10 µM stood at 54.3%. For the same molecule, the EC50 with IL-6 (THP-1 cells) is greater than 10000 nM; in the assay with SW480 colon cancer cells it was 988 nM; in assay [1], 973 nM; in assay [2], 2110 nM.
As to `O=C(Nc1cncc(-c2ccc3[nH]nc(-c4cc5c(-c6ccccc6F)cncc5[nH]4)c3c2)c1)C1CCCC1` [Compound 78, N-(5-(3-(4-(2-Fluorophenyl)-1H-pyrrolo[2,3-c]pyridin-2-yl)-1H-indazol-5-yl)pyridin-3-yl)cyclopentanecarboxamide], the EC50 in the assay with IL-6 (THP-1 cells) is 6420 nM; with SW480 colon cancer cells, 1220 nM; in assay [1], 1410 nM; in assay [2], 1240 nM.
On the same counts, the results for `CC(C)C(=O)Nc1cncc(-c2ccc3[nH]nc(-c4cc5c(-c6ccccc6F)cncc5[nH]4)c3c2)c1` [Compound 65, N-(5-(3-(4-(2-Fluorophenyl)-1H-pyrrolo[2,3-c]pyridin-2-yl)-1H-indazol-5-yl)pyridin-3-yl)isobutyramide] are 263 nM, 812 nM, 1250 nM and 626 nM.
On the same counts, the results for `c1ccc(-c2ccc3[nH]nc(-c4cc5c(-c6ccncc6)cncc5[nH]4)c3c2)nc1` [Compound 140, 5-(Pyridin-2-yl)-3-(4-(pyridin-4-yl)-1H-pyrrolo[2,3-c]pyridin-2-yl)-1H-indazole] are 177 nM, 1060 nM, 750 nM and 1290 nM.
Turning to `CS(=O)(=O)NCc1cc(F)cc(-c2cncc3[nH]c(-c4n[nH]c5ccc(-c6cncc(NC(=O)Cc7ccccc7)c6)cc45)cc23)c1` [Compound 486, N-(5-(3-(4-(3-Fluoro-5-(methylsulfonamidomethyl)phenyl)-1H-pyrrolo[2,3-c]pyridin-2-yl)-1H-indazol-5-yl)pyridin-3-yl)-2-phenylacetamide], the EC50 in the assay on IL-6 (THP-1 cells) is 574 nM; in the assay with SW480 colon cancer cells, greater than 10000 nM; in assay [1] it was 4770 nM; in assay [2], 3480 nM. In the assay on SW480 colon cancer cells (SW480, read-out: percent inhibition at 10 μM), the inhibition at 10 µM amounted to 45.4%.
Take `CS(=O)(=O)NCc1cc(F)cc(-c2cncc3[nH]c(-c4n[nH]c5ccc(-c6cncc(OCc7ccccc7)c6)cc45)cc23)c1` [Compound 774, N-(3-(2-(5-(5-(Benzyloxy)pyridin-3-yl)-1H-indazol-3-yl)-1H-pyrrolo[2,3-c]pyridin-4-yl)-5-fluorobenzyl)methanesulfonamide]: in the assay on IL-6 (THP-1 cells), the inhibition at 10 µM was determined as 45%. Besides, the EC50 in the assay with IL-6 (THP-1 cells) is greater than 10000 nM; in the assay on SW480 colon cancer cells it was 2010 nM; in assay [1], 1490 nM; in assay [2], 2150 nM.
In the case of `O=C(Nc1cncc(-c2ccc3[nH]nc(-c4cc5c(-c6ccc(F)cc6)cncc5[nH]4)c3c2)c1)C1CCC1` [Compound 49, N-(5-(3-(4-(4-Fluorophenyl)-1H-pyrrolo[2,3-c]pyridin-2-yl)-1H-indazol-5-yl)pyridin-3-yl)cyclobutanecarboxamide], the EC50 in the assay on IL-6 (THP-1 cells) turned out to be 171 nM; with SW480 colon cancer cells, 302 nM; in assay [1], 135 nM; in assay [2] it was 240 nM.
For `Fc1ccccc1-c1cncc2[nH]c(-c3n[nH]c4ccc(-c5cncc(CN6CCCCC6)c5)cc34)cc12` [Compound 71, 3-(4-(2-Fluorophenyl)-1H-pyrrolo[2,3-c]pyridin-2-yl)-5-(5-(piperidin-1-ylmethyl)pyridin-3-yl)-1H-indazole], in that order: 3300 nM, 3420 nM, 2310 nM and 4260 nM.
Turning to `c1cc(-c2ccc3[nH]nc(-c4cc5c(-c6ccsc6)cncc5[nH]4)c3c2)ccn1` [Compound 298, 5-(Pyridin-4-yl)-3-(4-(thiophen-3-yl)-1H-pyrrolo[2,3-c]pyridin-2-yl)-1H-indazole], the half-maximal effective concentration (EC50) stood at 1090 nM with IL-6 (THP-1 cells), 1360 nM in the assay on SW480 colon cancer cells, 716 nM in assay [1] and 1330 nM in assay [2].
For `Fc1ccccc1-c1cncc2[nH]c(-c3n[nH]c4ccc(-c5cncc(OC6CCNCC6)c5)cc34)cc12` [Compound 544, 3-(4-(2-Fluorophenyl)-1H-pyrrolo[2,3-c]pyridin-2-yl)-5-(5-(piperidin-4-yloxy)pyridin-3-yl)-1H-indazole], the EC50 in the assay on IL-6 (THP-1 cells) stood at 436 nM; in the assay with SW480 colon cancer cells, 1350 nM; in assay [1], 2760 nM; in assay [2], 1830 nM.
For `CCCC(=O)Nc1cncc(-c2ccc3[nH]nc(-c4cc5c(-c6ccc(F)cc6)cncc5[nH]4)c3c2)c1` [Compound 45, N-(5-(3-(4-(4-Fluorophenyl)-1H-pyrrolo[2,3-c]pyridin-2-yl)-1H-indazol-5-yl)pyridin-3-yl)butyramide], in that order: 349 nM, 1010 nM, 290 nM and 1510 nM.
For the molecule `CC(C)(C)C(=O)Nc1cncc(-c2ccc3[nH]nc(-c4cc5c(-c6ccc(F)cc6)cncc5[nH]4)c3c2)c1` [Compound 36, N-(5-(3-(4-(4-Fluorophenyl)-1H-pyrrolo[2,3-c]pyridin-2-yl)-1H-indazol-5-yl)pyridin-3-yl)pivalamide], the EC50 in the assay with IL-6 (THP-1 cells) amounted to 6910 nM; in the assay with SW480 colon cancer cells it was 702 nM; in assay [1], 1090 nM; in assay [2] it was 680 nM.

The record behind these values is patent US20180228780A1, “3-(1H-PYRROLO[2,3-C]PYRIDIN-2-YL)-1H-INDAZOLES AND THERAPEUTIC USES THEREOF” (Samumed, LLC, priority 2015, published 2018).
